Experiments:
[1] = target: Cys7-[Tyr10]secretin(1-27) agonist probe; test: cysteine trapping, autoradiograph densitometry; settings: intact COS-1 cells, non-reducing 10% SDS-PAGE, n = 3, read off a plot
[2] = target: Cys2-[Tyr10]secretin(1-27) agonist probe; test: cysteine trapping, autoradiograph densitometry; settings: ECL2 series; intact COS-1 cells; non-reducing 10% SDS-PAGE; n = 4; read off a plot
[3] = target: Cys6-[Tyr10]secretin(1-27) agonist probe; test: cysteine trapping, autoradiograph densitometry; settings: intact COS-1 cells, non-reducing 10% SDS-PAGE, n = 5, read off a plot
WT SecR [4] = target: T1, WT SecR (Homo sapiens, UniProt P47872); test: KI collisional fluorescence quenching of receptor-bound probes, WT SecR; settings: KI quencher, mean ± S.E.M., n = 3
T1 construct: expressed in transfected cells; membranes isolated from CHO-SecR cells
T1 sequence (P47872 23-440): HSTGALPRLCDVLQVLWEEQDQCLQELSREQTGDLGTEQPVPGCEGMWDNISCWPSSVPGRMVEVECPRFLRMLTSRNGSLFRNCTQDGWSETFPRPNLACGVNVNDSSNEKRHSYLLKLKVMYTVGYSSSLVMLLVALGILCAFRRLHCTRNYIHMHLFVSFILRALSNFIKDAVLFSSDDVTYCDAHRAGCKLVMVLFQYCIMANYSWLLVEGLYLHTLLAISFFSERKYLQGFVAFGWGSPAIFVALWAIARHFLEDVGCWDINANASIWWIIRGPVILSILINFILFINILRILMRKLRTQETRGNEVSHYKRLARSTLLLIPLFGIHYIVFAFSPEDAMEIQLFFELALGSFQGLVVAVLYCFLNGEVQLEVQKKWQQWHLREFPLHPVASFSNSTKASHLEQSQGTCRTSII
Procedure: (§1) Incubations were terminated by separating receptor-bound ligand from free ligand using centrifugation at 25,000 × g for 10 min at 4 °C. The sample pellet was washed again with ice-cold KRH medium and resuspended in KRH medium for fluorescence measurements. The samples were excited at 481 nm and the emission was collected at 521 nm, with a bandwidth of 5 nm at an integration rate of 0.5 nm/s, and fluorescence intensities were collected by constant wavelength single point analysis using SPEX Fluoromax 3 (Horiba Scientific, Piscataway, NJ) with Origin version 8.1.
(§2) Fluorescence collisional quenching studies were performed using the hydrophilic quenching reagent, potassium iodide (KI), as described previously. Fluorescence intensities of receptor-bound probes were collected by exciting samples at 481 nm using Fluoromax-3 spectrofluorometer single point measurement by Origin version 8.1. […] The effect of ionic strength was determined by measuring fluorescence intensities in potassium chloride. […] The Stern–Volmer quenching constant, KSV, was calculated from the slope of Fo/F as a function of the quencher concentration [I^−].

SecR(G264A,I268A) [5] = target: T2, SecR(G264A,I268A) (Homo sapiens, UniProt P47872, G264A/I268A); test: KI collisional fluorescence quenching of receptor-bound probes, mutant SecR; settings: KI quencher, mean ± S.E.M., n = 3
T2 construct: expressed in transfected cells; membranes isolated from these cells
T2 sequence (P47872 23-440 G264A/I268A): as the sequence (P47872 23-440) above, with G242A, I246A counted along it
Procedure: as §1, §2

WT SecR [6] = target: T1, WT SecR; test: Fluorescence anisotropy of receptor-bound probes, WT SecR; settings: for Anisotropy: SecR WT, membranes, 50 nM probe, mean ± S.E.M., n = 3; for anisotropy, + GppNHp vs control, in words: WT SecR, 20 and 37 °C
Procedure: as §1

SecR(G264A,I268A) [7] = target: T2, SecR(G264A,I268A); test: Fluorescence anisotropy of receptor-bound probes, mutant SecR; settings: membranes, 50 nM probe, mean ± S.E.M., n = 3
Procedure: as §1

[8] = +GppNHp (uncoupled state, 10 µM)
[9] = -GppNHp (active state), 50 nM probe, ex 481/em 521 nm
[10] = control, 20 °C, KRH pH 7.4, ex 481 nm
[11] = control, 37 °C, KRH pH 7.4, ex 481 nm

Molecule	Stern-Volmer quenching constant (Ksv) (WT SecR [4]; [8])	Stern-Volmer quenching constant (Ksv) (WT SecR [4]; [9])	Stern-Volmer quenching constant (Ksv) (SecR(G264A,I268A) [5]; [8])	Stern-Volmer quenching constant (Ksv) (SecR(G264A,I268A) [5]; -GppNHp (active state))	Anisotropy (WT SecR [6]; +GppNHp (10 µM), 20 °C)	Anisotropy (WT SecR [6]; +GppNHp (10 µM), 37 °C)	Anisotropy (WT SecR [6]; [10])	Anisotropy (WT SecR [6]; [11])	Anisotropy (SecR(G264A,I268A) [7]; +GppNHp (10 µM), 20 °C)	Anisotropy (SecR(G264A,I268A) [7]; +GppNHp (10 µM), 37 °C)	Anisotropy (SecR(G264A,I268A) [7]; control, 20 °C)	Anisotropy (SecR(G264A,I268A) [7]; control, 37 °C)	other results
human wild type secretin receptor (SecR WT) (from UniProt P47872) G264A; I268A; I288C													other: receptor labeling (% of maximum signal) (% of maximum signal) ([1]; ECL2 series): 68
human wild type secretin receptor (SecR WT) (from UniProt P47872) G264A; I268A; W295C													other: receptor labeling (% of maximum signal) (% of maximum signal) [2]: 93; other: receptor labeling (% of maximum signal) (% of maximum signal) ([1]; ECL2 series): 83
human wild type secretin receptor (SecR WT) (from UniProt P47872) G264A; I268A; A359C													other: receptor labeling (% of maximum signal) (% of maximum signal) ([1]; ECL3 series): 85
human wild type secretin receptor (SecR WT) (from UniProt P47872) G264A; I268A; L374C													other: receptor labeling (% of maximum signal) (% of maximum signal) ([1]; ECL3 series): 88; other: receptor labeling (% of maximum signal) (% of maximum signal) ([3]; ECL3 series): 77
human wild type secretin receptor (SecR WT) (from UniProt P47872) G264A; I268A; W296C													other: receptor labeling (% of maximum signal) (% of maximum signal) ([3]; ECL2 series): 68
CC(C)C[C@H](NC(=O)CNC(=O)[C@H](CCC(N)=O)NC(=O)[C@H](CC(C)C)NC(=O)[C@H](CC(C)C)NC(=O)[C@H](CCCNC(=N)N)NC(=O)[C@H](CCC(N)=O)NC(=O)[C@H](CC(C)C)NC(=O)[C@H](CCCNC(=N)N)NC(=O)[C@H](C)NC(=O)CNC(=O)[C@H](CCC(=O)O)NC(=O)[C@H](CCCNC(=N)N)NC(=O)[C@H](CCCCNC(=O)c1ccc(-c2c3ccc(=N)c(S(=O)(=O)O)c-3oc3c(S(=O)(=O)O)c(N)ccc23)c(C(=O)O)c1)NC(=O)[C@H](CCCNC(=N)N)NC(=O)[C@H](CO)NC(=O)[C@H](CC(C)C)NC(=O)[C@H](CCC(=O)O)NC(=O)[C@H](CO)NC(=O)[C@@H](NC(=O)[C@H](Cc1ccccc1)NC(=O)[C@@H](NC(=O)CNC(=O)[C@H](CC(=O)O)NC(=O)[C@H](CO)NC(=O)[C@@H](N)Cc1c[nH]cn1)[C@@H](C)O)[C@@H](C)O)C(=O)N[C@H](C(N)=O)C(C)C [(Lys^13-Alexa^488)Sec]	3.9±02	7.9±0.6	4.5±0.9	5.2±0.4	0.20 ± 0.02	0.12 ± 0.01	0.14 ± 0.01	0.06 ± 0.01	0.20 ± 0.01	0.11 ± 0.01	0.18 ± 0.02	0.11 ± 0.01	anisotropy, + GppNHp vs control, in words (WT SecR [6]): higher anisotropy after treatment with GppNHp than the control state
CC(C)C[C@H](NC(=O)CNC(=O)[C@H](CCC(N)=O)NC(=O)[C@H](CC(C)C)NC(=O)[C@H](CC(C)C)NC(=O)[C@H](CCCNC(=N)N)NC(=O)[C@H](CCC(N)=O)NC(=O)[C@H](CC(C)C)NC(=O)[C@H](CCCNC(=N)N)NC(=O)[C@H](C)NC(=O)CNC(=O)[C@H](CCC(=O)O)NC(=O)[C@H](CCCNC(=N)N)NC(=O)[C@H](CC(C)C)NC(=O)[C@H](CCCNC(=N)N)NC(=O)[C@H](CO)NC(=O)[C@H](CC(C)C)NC(=O)[C@H](CCC(=O)O)NC(=O)[C@H](CO)NC(=O)[C@@H](NC(=O)[C@H](Cc1ccccc1)NC(=O)[C@@H](NC(=O)CNC(=O)[C@H](CC(=O)O)NC(=O)[C@H](CO)NC(=O)[C@@H](N)Cc1c[nH]cn1)[C@@H](C)O)[C@@H](C)O)C(=O)N[C@H](C(=O)NCC(=O)N[C@@H](CSC1CC(=O)N(CCCCCNC(=O)c2ccc(-c3c4ccc(=N)c(S(=O)(=O)O)c-4oc4c(S(=O)(=O)O)c(N)ccc34)c(C(=O)O)c2)C1=O)C(N)=O)C(C)C (stereo partly drawn) [Sec-Gly^28-(Cys^29-Alexa^488)]	4.9±0.4	6.2±0.7	4.2±0.8	5.6±1.1	0.13 ± 0.01	0.08 ± 0.01	0.13 ± 0.01	0.08 ± 0.01	0.15 ± 0.01	0.1 ± 0.01	0.13 ± 0.01	0.09 ± 0.01	
CC(C)C[C@H](NC(=O)CNC(=O)[C@H](CCC(N)=O)NC(=O)[C@H](CC(C)C)NC(=O)[C@H](CCCCNC(=O)c1ccc(-c2c3ccc(=N)c(S(=O)(=O)O)c-3oc3c(S(=O)(=O)O)c(N)ccc23)c(C(=O)O)c1)NC(=O)[C@H](CCCNC(=N)N)NC(=O)[C@H](CCC(N)=O)NC(=O)[C@H](CC(C)C)NC(=O)[C@H](CCCNC(=N)N)NC(=O)[C@H](C)NC(=O)CNC(=O)[C@H](CCC(=O)O)NC(=O)[C@H](CCCNC(=N)N)NC(=O)[C@H](CC(C)C)NC(=O)[C@H](CCCNC(=N)N)NC(=O)[C@H](CO)NC(=O)[C@H](CC(C)C)NC(=O)[C@H](CCC(=O)O)NC(=O)[C@H](CO)NC(=O)[C@@H](NC(=O)[C@H](Cc1ccccc1)NC(=O)[C@@H](NC(=O)CNC(=O)[C@H](CC(=O)O)NC(=O)[C@H](CO)NC(=O)[C@@H](N)Cc1c[nH]cn1)[C@@H](C)O)[C@@H](C)O)C(=O)N[C@H](C(N)=O)C(C)C [(Lys^22-Alexa^488)Sec]	4.5±0.2	8.9±1.0	4.3±0.2	6.1±0.3	0.20 ± 0.02	0.12 ± 0.01	0.14 ± 0.01	0.06 ± 0.01	0.19 ± 0.01	0.12 ± 0.01	0.18 ± 0.01	0.10 ± 0.01	anisotropy, + GppNHp vs control, in words (WT SecR [6]): higher anisotropy after treatment with GppNHp than the control state
